Laboratory results: article PMC4928072, “Dietary apigenin potentiates the inhibitory effect of interferon-α on cancer cell viability through inhibition of 26S proteasome-mediated interferon receptor degradation” (Food & Nutrition Research, 2016)

What was measured:
Type in all cases: biochemical
[1] = molecular target: T1, 26S proteasome, β2 subunit (trypsin-like activity) (Homo sapiens, UniProt Q99436); test: fluorogenic peptidase assay of purified human 26S proteasome with Ac-Arg-Leu-Arg-AMC
T1 construct: gene PSMB7; purified human 26S proteasome; with other subunits of the 26S proteasome
T1 sequence (Q99436 44-277): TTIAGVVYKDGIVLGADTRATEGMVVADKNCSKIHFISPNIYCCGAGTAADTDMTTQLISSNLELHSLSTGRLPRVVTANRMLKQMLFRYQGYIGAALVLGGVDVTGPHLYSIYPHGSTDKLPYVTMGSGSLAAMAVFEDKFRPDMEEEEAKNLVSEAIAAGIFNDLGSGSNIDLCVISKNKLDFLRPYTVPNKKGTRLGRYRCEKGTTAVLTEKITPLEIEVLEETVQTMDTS

[2] = molecular target: T2, 26S proteasome, β5 subunit (chymotrypsin-like activity) (Homo sapiens, UniProt P28074); test: fluorogenic peptidase assay of purified human 26S proteasome with Suc-Leu-Leu-Val-Tyr-AMC
T2 construct: gene PSMB5; purified human 26S proteasome; with other subunits of the 26S proteasome
T2 sequence (P28074 60-263): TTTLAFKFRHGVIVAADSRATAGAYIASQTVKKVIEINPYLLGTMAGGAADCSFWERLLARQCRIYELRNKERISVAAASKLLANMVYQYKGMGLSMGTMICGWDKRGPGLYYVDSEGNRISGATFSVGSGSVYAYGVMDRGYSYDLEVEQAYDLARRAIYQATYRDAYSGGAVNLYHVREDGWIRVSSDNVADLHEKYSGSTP

[3] = molecular target: T3, 26S proteasome, β1 subunit (caspase-like activity) (Homo sapiens, UniProt P28072); test: peptidase assay of purified human 26S proteasome with Z-Nle-Pro-Nle-Asp-aminoluciferin
T3 construct: gene PSMB6; purified human 26S proteasome; with other subunits of the 26S proteasome
T3 sequence (P28072 35-239): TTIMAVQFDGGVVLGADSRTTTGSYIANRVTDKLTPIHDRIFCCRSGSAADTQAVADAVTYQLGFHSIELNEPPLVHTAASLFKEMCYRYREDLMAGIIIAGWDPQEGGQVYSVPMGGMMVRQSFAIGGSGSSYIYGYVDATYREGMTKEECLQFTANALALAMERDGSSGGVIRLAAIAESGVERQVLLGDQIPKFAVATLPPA

Which IC50 [1] does the source give for `O=c1cc(-c2ccc(O)cc2)oc2cc(O)cc(O)c12` [apigenin] here?
Its IC50 is 20 µM.

And the IC50 [2]?
The IC50 was 11.5 µM.

What about the IC50 [3] of the same compound?
Its IC50 is 1.5 µM.
